Legend:
[1] = system: RCC-A spheroids; assay: Cell survival rate assay on spheroid culture (CellTiter-Glo 3D); type: cell-based, human; settings: SITA (100 μM) in combination with SUN, third day
Text: (§1) After attaining the informed consent from the patients at Saitama Medical Center, Saitama Medical University, patient-derived cells (PDC) were produced from the tumors excised from the RCC patients. The tumor samples were processed with reference to the literature (Namekawa, T, et al. ALDH1A1 in patient-derived bladder cancer spheroids activates retinoic acid signaling leading to TUBB3 overexpression and tumor progression. Int. J. Cancer 146, 1099-1113 (2019)). The protocol of the research was approved by the Ethics Committee of Saitama Medical Center, Saitama Medical University (No. 1363-IV).
(§2) A cell survival rate of the cells 3 days after the drug treatment and siRNA transfection was evaluated by CellTiter-Glo 3D Assay (Promega K.K.).
(§3) FIGS. 2b to 2c depict the results of treating the RCC-A spheroids and the RCC-B spheroids with SITA (100 μM) and SUN. The data was presented as the mean value ±SD of the relative luciferase activity as analyzed by an ATP-based luciferase assay. […] In FIGS. 2b to 2c, moreover, “*” represents P<0.05.
(§4) The production of the spheroid ATP in the RCC-A cells or RCC-B cells treated with SUN alone or a combination of SUN and SITA on the third day was measured with the luciferase activity using the CEllTiter-Glo. […]

[2] = system: RCC-B spheroids; assay: as above; type: cell-based, human; settings: SITA (100 μM) in combination with SUN, third day
Text: as §1, §2, §3, §4

[3] = system: IL6 mRNA; assay: IL6 mRNA level in 3D culture of ACHN-R cells (qRT-PCR); type: cell-based, human; settings: SITA treatment versus vehicle, ACHN-R cells 3D culture
Description: (§5) Extraction of RNA, synthesis of cDNA, and quantitative reverse-transcription polymerase chain reaction (qRT-PCR) were carried out according to the methods disclosed in “[…], et al. ALDH1A1 in patient-derived bladder cancer spheroids activates retinoic acid signaling leading to TUBB3 overexpression and tumor progression. Int. J. Cancer 146, 1099-1113 (2019).” FIGS. 4k to 4l depict the results studying how SITA treatment affects the IL6 mRNA level in the 3D cultures of the ACHN-R cells (FIGS. 4k) and 769-P-R cells (FIG. 4l), which are both SUN resistant cells. […] In FIGS. 4k to 4l, moreover, “*” represents P<0.05.

[4] = system: ACHN-R xenograft tumor; assay: Xenograft tumor model in nude mice; type: in vivo
Description: Male nude mice (BALB/c-nu/nu, 6 weeks old) were acquired from CLAIR Japan, Inc. The ACHN cells and the ACHN−R cells were each subjected to trypsinization, followed by washing with PBS. Then, 5×10^6 cells of the ACHN cells or the ACHN−R cells were dispersed in 150 μL of Matrigel (BD Biosciences), and were subcutaneously inoculated in each mouse. The size of the tumor was measured every day. The tumor volume (V) was determined by measuring the length (L) and the width (W), and inserting the measured values in the following equation.
When the volume of the engrafted tumor reached 180 mm^3, SUN (20 mg/kg) was orally administered to the mice inoculated with the ACHN cells, and SUN (20 mg/kg) alone or two drugs, SUN (20 mg/kg) and DPP4 inhibitor sitagliptin (SITA) (30 mg/kg), were orally administered to the randomly selected mice inoculated with the ACHN-R cells. […] The drug was administered in a cycle consisting of 2 consecutive days of administration, followed by 1 day of washout.
At the point when the volume of the ACHN or ACHN−R xenograft nude mouse tumor reached 180 mm^3, oral administration of SUN alone, or a combination of SUN and SITA was started.
The data was presented as the mean SD, and n=6. […] The tumor volume was estimated by measuring the size of the tumor with Vernier calipers. […] In FIGS. 6a and 6b, moreover, “k” represents P<0.05.
Ki67 immunohistochemical staining of the excised tumor of each group was carried out to determine a ratio of Ki67 positive cells (Ki67 index). […] The scale bar is 50 μm. […] In FIG. 6g, moreover, “*” represents P<0.05.
The expression level was evaluated by qRT-PCR. […] In FIGS. 6h to 6l, moreover, “*” represents P<0.05.

[5] = system: IL6 mRNA; assay: IL6 mRNA level in 3D culture of 769-P-R cells (qRT-PCR); type: cell-based, human; settings: SITA treatment versus vehicle, 769-P-R cells 3D culture
Description: as §5

[6] = system: ACHN cells; assay: 3D spheroid proliferation / cell survival rate assay; type: cell-based, human; settings: SITA alone, dose-response
Description: (§6) ACHN and 769-P, which were human RCC cell lines, were acquired from the American Type Culture Collection (ATCC), and those authenticated by short tandem repeat (STR) analysis performed by BEX CO., LTD. were used. The ACHN and 769-P cells were cultured on a DEME medium and a PRMI medium (NACALI TESQUE, INC.), respectively, to both of which 10% of FBS, 100 U/mL of penicillin, and 100 μg/mL of streptomycin were added, using an incubator set at 37° C. and 5% CO2. The ACHN and 769-P cells were exposed to sunitinib (SUN) at 10 μM max., for 6 months or longer, to produce SUN resistant RCC cell lines, ACHN-R and 769-P-R, respectively.
as §2
(§7) FIG. 4a depicts the results of ACHN-R and the parent cell line thereof. FIG. 4b depicts the results of 769-P-R and the parent cell line thereof. […] In FIGS. 4a to 4b, moreover, “ns” represents “no significant difference.”
(§8) FIGS. 4m to 4n are diagrams depicting the results studying how the DPP4 overexpression affects the cell survival rate of the RCC spheroids treated with SUN. ACHN cells (FIG. 4m) and 769-P cells (FIG. 4n), each stably expressing a control vector (vector #1 or #2) or DPP4 (DPP4 #1 or #2) were treated with SUN, and were analyzed by an ATP-based luciferase assay. […]

[7] = system: 769-P cells; assay: as above; type: cell-based, human; settings: SITA alone, dose-response
Description: as §6, §2, §7, §8

[8] = system: ACHN-R cells; assay: as above; type: cell-based, human
Description: as §6, §2, §7
(§9) FIGS. 4c to 4f are diagrams depicting the results of studying the effect of the combination of SITA and SUN in the 3D culture of the ACHN cells (FIG. 4c), ACHN-R cells (FIG. 4d), 769-P cells (FIG. 4e), or 769-P-R cells (FIG. 4f). The concentration of SITA used was 100 μM. […] In FIGS. 4c, 4d, and 4f, moreover, […] represents P<0.05.
(§10) FIGS. 4g to 4j are diagrams depicting the results studying how the DPP4 knockdown by siRNA affects the therapeutic effects of SUN in the 3D culture of the ACHN cells (FIG. 4g), ACHN−R cells (FIG. 4h), 769-P cells (FIG. 4i), or 769-P-R cells (FIG. 4j). The data was represented as the means value±SD of the relative luciferase activity of each group of the spheroids, and n=3. […] In FIGS. 4h to 4j, moreover, “*” represents P<0.05.

[9] = system: 769-P-R cells; assay: as above; type: cell-based, human
Description: as §6, §2, §7, §9, §10

[10] = combination of SUN and SITA (100 μM)

N[C@@H](CC(=O)N1CCn2c(nnc2C(F)(F)F)C1)Cc1cc(F)c(F)cc1F [SITA, sitagliptin]
proliferation inhibition effect owing to SUN (cell survival rate, relative luciferase activity) [1]: proliferation inhibition effect owing to SUN was enhanced | proliferation inhibition effect owing to SUN (cell survival rate, relative luciferase activity) [2]: proliferation inhibition effect owing to SUN was enhanced | IL6 mRNA level [3]: reduced the expression of mRNA of IL6 | Ki67 index (ratio of Ki67 positive cells) ([4]; SITA and SUN in combination, ACHN-R xenograft tumor): reduced the Ki67 index | sunitinib resistance of the RCC xenograft tumor ([4]; SITA in combination with SUN): contributed to overturn the sunitinib resistance | expression of IL6 (mRNA level) in tumor ([4]; SITA in combination with SUN, ACHN-R xenograft tumor): expression of IL6 decreased | proliferation of the tumor (tumor volume, tumor weight) ([4]; SUN (20 mg/kg) and SITA (30 mg/kg) orally in combination, ACHN-R xenograft, 13th day): proliferation of the tumor was suppressed to the similar degree to the ACHN xenograft tumor | IL6 mRNA level [5]: reduced the expression of mRNA of IL6 | spheroid proliferation [6]: did not affect the spheroid proliferation | spheroid proliferation [7]: did not affect the spheroid proliferation | spheroid proliferation ([8]; SITA alone, dose-response): did not affect the spheroid proliferation | spheroid proliferation [8, 10]: suppressed the spheroid proliferation | spheroid proliferation ([9]; SITA alone, dose-response): did not affect the spheroid proliferation | spheroid proliferation [9, 10]: suppressed the spheroid proliferation

— US20240148736A1, “COMBINATION DRUG FOR TREATING RENAL CANCER AND POTENTIATOR FOR THERAPEUTIC EFFECTS OF TYROSINE KINASE INHIBITOR” (Saitama Medical University, priority 2020, published 2024)
